Patent US20250034170A1, “SMALL MOLECULE MODULATORS OF GLUCOCEREBROSIDASE ACTIVITY AND USES THEREOF” (Vanqua Bio, Inc., priority 2021, published 2025)

What follows are compounds tested against T1, GCase (Homo sapiens, UniProt P04062) (assay: activation of GCase in a live cell PFB assay in HELA cells). Details: EC50 given as range classes.
T1 construct: endogenous in cells; host or cells: HeLa cells
T1 sequence (P04062 40-536): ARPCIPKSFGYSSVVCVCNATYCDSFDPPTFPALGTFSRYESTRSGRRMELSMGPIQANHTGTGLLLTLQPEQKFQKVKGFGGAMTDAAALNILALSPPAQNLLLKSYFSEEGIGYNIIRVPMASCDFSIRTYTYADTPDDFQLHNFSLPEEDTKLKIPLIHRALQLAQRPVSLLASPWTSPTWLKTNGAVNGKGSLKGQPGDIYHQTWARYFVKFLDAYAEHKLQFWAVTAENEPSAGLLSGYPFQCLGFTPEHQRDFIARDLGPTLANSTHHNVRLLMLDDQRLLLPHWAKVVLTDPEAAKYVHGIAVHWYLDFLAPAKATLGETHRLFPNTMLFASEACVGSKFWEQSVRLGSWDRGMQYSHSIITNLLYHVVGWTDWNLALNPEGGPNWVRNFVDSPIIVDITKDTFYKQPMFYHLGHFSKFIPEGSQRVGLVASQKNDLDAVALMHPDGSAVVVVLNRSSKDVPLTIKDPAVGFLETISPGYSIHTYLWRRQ
Type: cell-based
Method: Exemplary compounds were evaluated for activation of GCase in a live cell PFB assay in HELA cells (essentially as described in Ysselstein et al., “LRRK2 kinase activity regulates lysosomal glucocerebrosidase in neurons derived from Parkinson's disease patients” Nature Communications (2019) 10:5570). […] EC50 ranges: A: <10 μM; B: >10-50 μM; C: >50-100 μM; D: >100 μM.

| Compound | EC50 [µM] |
| --- | --- |
| Cc1ccc(N2CC3(CCN(c4cnc5cnn(CC(F)F)c5n4)CC3)CC2=O)c(OC(F)F)n1 [Cmpd 781] | < 10 |
| O=C1CC2(CCN(c3cnc4cnn(CC(F)F)c4n3)CC2)CN1Cc1ccc(Cl)cc1F [Cmpd 421] | < 10 |
| COc1ncc(N2CCC3(CN(c4cnc(C(F)(F)F)nc4)C3)C2)nc1-c1nncs1 [Cmpd 1022] | > 100 |
| COc1ccc(C(=O)N2CC3(CCN(c4cnc5cnn(CC(F)F)c5n4)C3)C2)cc1 [Cmpd 379] | 10 to 50 |
| Cc1nc(N2CCC3(C2)CN(c2ncc4c(C)nn(CC(F)(F)F)c4n2)C3)cc(C(F)(F)F)n1 [Cmpd 617] | 10 to 50 |
| Cc1ccccc1S(=O)(=O)N1CC2(CCN(c3cnc4cnn(CC(F)F)c4n3)C2)C1 [Cmpd 394] | 10 to 50 |
| Cc1nn(CC(F)(F)F)c2nc(N3CCC4(CCN(c5cnc(C(F)(F)F)nc5)C4)C3)ncc12 (stereo not shown) [Cmpd 615] | 10 to 50 |
| O=C(c1cc(Cl)cc(Cl)n1)N1CC2(CCN(c3cnc4cnn(CC(F)F)c4n3)C2)C1 [Cmpd 420] | 10 to 50 |
| O=C(c1ccccc1OC(F)(F)F)N1CC2(CCN(c3cnc4cnn(CC(F)F)c4n3)C2)C1 [Cmpd 390] | < 10 |
| Cc1nc(N2CCC3(CC2)CCN(c2cnc4cnn(CC(F)F)c4n2)C3)cc(C(F)(F)F)n1 [Cmpd 579] | 10 to 50 |
| FC(F)Cn1ncc2ncc(N3CCC4(CC3)CN(c3ccc(C(F)(F)F)cn3)CCO4)nc21 [Cmpd 207] | < 10 |
| Cc1csc(CN2CC3(CCN(c4cnc5cnn(CC(F)F)c5n4)CC3)CC2=O)n1 [Cmpd 399] | 10 to 50 |
| Cc1ncc(N2CCC3(CCN(c4cnc5c(C)nn(CC(F)F)c5n4)CC3)C2)c(C(F)(F)F)n1 [Cmpd 602] | 10 to 50 |
| Cn1c(N2CCC3(CN(c4ccnc(C(F)(F)F)c4)C3)C2)nc2c(cnn2C2COC2)c1=O [Cmpd 993] | 50 to 100 |
| O=C1N(c2cnc3cnn(CC(F)F)c3n2)CCC12CN(c1ccc(C(F)(F)F)cn1)C2 [Cmpd 1011] | 10 to 50 |
| Cn1c(N2CCC3(CCN(c4cnc(C(F)(F)F)nc4)C3)CC2)nc2c(cnn2CC(F)F)c1=O [Cmpd 1015] | 10 to 50 |

Same assay, conditions: activation of GCase, EC50 ranges

| Compound | EC50 [µM] |
| --- | --- |
| Cc1nc(N2CC3(CCN(c4ncc5cnn(CC(C)(F)F)c5n4)C3)C2)cc(C(F)(F)F)n1 [Cmpd 1135] | 10 to 50 |
| Cc1nn(CC(F)F)c2nc(N3CCC4(CC3)CCN(c3ccnc(C(F)(F)F)n3)C4=O)cnc12 [Cmpd 897] | < 10 |
| FC(F)Cn1ncc2ncc(N3CCC4(CCC(Oc5ccncc5C(F)(F)F)C4)CC3)nc21 (stereo not shown) [Cmpd 687] | < 10 |
| CCn1c(=O)n(CC(F)F)c2nc(N3CCC4(CC3)CCN(c3cnc(C(F)(F)F)nc3C)C4)cnc21 [Cmpd 1085] | < 10 |
| O=S(=O)(c1cccc(F)c1)N1CC2(CCN(c3cnc4cnn(CC(F)F)c4n3)C2)C1 [Cmpd 375] | < 10 |
| Cn1c(N2CCC3(CC2)CC(=O)N(c2ccnc(C(F)(F)F)c2)C3)nc2c(cnn2CC(F)F)c1=O [Cmpd 923] | < 10 |
| FC(F)Cn1ncc2ncc(N3CCC4(CC3)CC(Oc3ccncc3C(F)(F)F)C4)nc21 [Cmpd 706] | < 10 |
| CCC1N(c2ccc(C(F)(F)F)cn2)C(=O)CC12CCN(c1cnc3cnn(C4COC4)c3n1)CC2 (stereo not shown) [Cmpd 859] | 10 to 50 |
| O=C1N(c2cc(C(F)(F)F)ccn2)CCC12CCN(c1cncc(OCC(F)(F)F)n1)CC2 [Cmpd 244] | 10 to 50 |
| FC(F)Cn1ncc2ncc(N3CCCC4(CN(c5cc(C(F)(F)F)ccn5)C4)C3)nc21 [Compound 38, 6-[1-(2,2-difluoroethyl)-1H-pyrazolo[3,4-b]pyrazin-6-yl]-2-[4-(trifluoromethyl)pyridin-2-yl]-2,6-diazaspiro[3.5]nonane] | 10 to 50 |
| Cc1cnc(N2CC3(CCN(c4cnc5cnn(CC(F)F)c5n4)C3)C2)cn1 [Cmpd 1039] | 10 to 50 |
| Cc1cc(C(F)(F)F)nnc1N1CCC2(CCN(c3cnc4cnn(CC(F)F)c4n3)CC2)C1 [Cmpd 756] | 10 to 50 |
| O=C1N(Cc2ccc(C(F)(F)F)cn2)CCC12CCN(c1cnc3cnn(CC(F)F)c3n1)CC2 [Cmpd 310] | 10 to 50 |
| O=C1N(c2cnc3cnn(CC(F)F)c3n2)CCC12CCN(c1ccc(C(F)(F)F)nc1)CC2 [Compound 119, 2-[1-(2,2-difluoroethyl)-1H-pyrazolo[3,4-b]pyrazin-6-yl]-8-[6-(trifluoromethyl)pyridin-3-yl]-2,8-diazaspiro[4.5]decan-1-one] | < 10 |
| Cn1c(=O)n(CC(F)F)c2nc(N3CCC4(CN(c5ccnc(C(F)(F)F)c5)C4)C3)ncc21 [Cmpd 1142] | < 10 |
| FC(F)(F)c1cc(N2CCC3(CCN(c4cnc5cnn(C6COC6)c5n4)C3)C2)ccn1 (stereo not shown) [Cmpd 487] | 10 to 50 |
| O=C1CC2(CCN(c3ncccc3C(F)(F)F)CC2)CN1c1cnc2cnn(CC(F)F)c2n1 [Compound 113, 2-[1-(2,2-difluoroethyl)-1H-pyrazolo[3,4-b]pyrazin-6-yl]-8-[3-(trifluoromethyl)pyridin-2-yl]-2,8-diazaspiro[4.5]decan-3-one] | > 100 |
| FC(F)Cn1ncc2ncc(N3CCC4(CCN(c5ccc(C(F)(F)F)nc5)C4)C(F)(F)C3)nc21 (stereo not shown) [Cmpd 266] | < 10 |
| CCn1ncc2cnc(N3CCC4(CC3)CC(=O)N(c3ccc(C(F)(F)F)nc3)C4)nc21 [Cmpd 889] | < 10 |
| O=C1N(c2cnc3cnn(CC(F)F)c3n2)CCC12CN(c1ccnc(C(F)(F)F)c1)C2 [Cmpd 339] | 10 to 50 |
| FC(F)Cn1ncc2ncc(N3CC4(CCN(c5cncc(C(F)(F)F)c5)CC4)C3)nc21 [Compound 126, 2-[1-(2,2-difluoroethyl)-1H-pyrazolo[3,4-b]pyrazin-6-yl]-7-[5-(trifluoromethyl)pyridin-3-yl]-2,7-diazaspiro[3.5]nonane] | < 10 |

| Compound | EC50 [µM] |
| --- | --- |
| FC(F)Cn1ncc2ncc(N3CCCC4(CN(c5ccc(C(F)(F)F)nc5)C4)C3)nc21 [Compound 37, 6-[1-(2,2-difluoroethyl)-1H-pyrazolo[3,4-b]pyrazin-6-yl]-2-[6-(trifluoromethyl)pyridin-3-yl]-2,6-diazaspiro[3.5]nonane] | 10 to 50 |
| Cc1nc(N2CCC3(C2)CN(c2cnc4cnn(CC(F)F)c4n2)C3)cc(C(F)(F)F)n1 [Cmpd 551] | < 10 |
| Cn1c(=O)n(CC(F)F)c2nc(N3CCC4(CN(c5ccnc(C(F)(F)F)c5)C4)C3)cnc21 [Cmpd 977] | 10 to 50 |
| O=C1N(c2cc(C(F)(F)F)ccn2)CCC12CCN(c1cncc(N3CCOCC3)n1)CC2 [Cmpd 246] | 10 to 50 |
| O=C1CC2(CN(c3ccnc(C(F)(F)F)c3)C2)CN1c1cnc2cnn(CC(F)F)c2n1 [Cmpd 340] | < 10 |
| CC1(C)N(c2cc(C(F)(F)F)ccn2)C(=O)CC12CCN(c1cnc3cnn(CC(F)F)c3n1)CC2 [Cmpd 662] | 10 to 50 |
| Cc1nc(N2CC3(CCN(c4cnc5cnn(CC(F)F)c5n4)CC3)C2)cc(C(F)(F)F)n1 [Cmpd 522] | < 10 |
| FC(F)Cn1ncc2ncc(N3CCCC4(CN(c5cccc(C(F)(F)F)n5)C4)C3)nc21 [Compound 23, 6-[1-(2,2-difluoroethyl)-1H-pyrazolo[3,4-b]pyrazin-6-yl]-2-[6-(trifluoromethyl)pyridin-2-yl]-2,6-diazaspiro[3.5]nonane] | 10 to 50 |
| FC(F)Cn1ncc2ncc(N3CCC4(CN(c5ccc(C(F)(F)F)nn5)C4)C3)nc21 [Cmpd 440] | 50 to 100 |
| O=C1N(Cc2cnc(C(F)(F)F)s2)CCC12CCN(c1cnc3cnn(CC(F)F)c3n1)CC2 [Cmpd 366] | < 10 |
| CCc1nn(CC(F)F)c2nc(N3CCC4(CN(c5ccnc(C(F)(F)F)c5)C4)C3)cnc12 [Cmpd 1068] | 10 to 50 |
| FC(F)Cn1ncc2ncc(N3CC4(CCCN(c5ccnc(C(F)(F)F)c5)C4)C3)nc21 [Compound 8, 2-[1-(2,2-difluoroethyl)-1H-pyrazolo[3,4-b]pyrazin-6-yl]-6-[2-(trifluoromethyl)pyridin-4-yl]-2,6-diazaspiro[3.5]nonane] | < 10 |
| FC(F)Cn1ncc2ncc(N3CCC4(CC3)CC(Oc3cc(C(F)(F)F)ccn3)C4)nc21 [Cmpd 705] | 10 to 50 |
| O=C1N(c2ccc(C(F)(F)F)nc2)C(c2ccccc2)CC12CCN(c1cnc3cnn(CC(F)F)c3n1)CC2 (stereo not shown) [Cmpd 291] | < 10 |
| FC(F)Cn1ncc2ncc(N3CCC4(CN(Cc5ccc(C(F)(F)F)nc5)C4)C3)nc21 [Cmpd 320] | < 10 |
| FC(F)Cn1ncc2ncc(N3CCC4(CCCN(c5cccnc5C(F)(F)F)C4)C3)nc21 (stereo not shown) [Compound 7, 2-[1-(2,2-difluoroethyl)-1H-pyrazolo[3,4-b]pyrazin-6-yl]-7-[2-(trifluoromethyl)pyridin-3-yl]-2,7-diazaspiro[4.5]decane] | < 10 |
| FC(F)Cn1ncc2ncc(N3CC4(CCN(c5cncc(C(F)(F)F)n5)CC4)C3)nc21 [Cmpd 771] | < 10 |
| O=C1CC2(CCN(c3cnc4cnn(C5COC5)c4n3)CC2)CN1c1nccc(C(F)(F)F)n1 [Cmpd 279] | < 10 |
| O=C1CC2(CCN(c3cnc4cnn(CC(F)F)c4n3)CC2)CN1Cc1cccc(C(F)(F)F)n1 [Cmpd 360] | < 10 |
| CCn1c(=O)n(CC(F)F)c2nc(N3CCC4(CN(c5cc(C(F)(F)F)nc(C)n5)C4)C3)ncc21 [Cmpd 1081] | < 10 |
| Cc1nc(N2CC3(CCN(c4ncc5cnn(CC(F)(F)F)c5n4)C3)C2)cc(C(F)(F)F)n1 [Cmpd 500] | > 100 |
